The target of one data set is hTRPV3 (Homo sapiens (Human), UniProt Q8NET8). Nature of the data set: Whole-cell patch clamp, hTRPV3 Phase 1 / Phase 2 currents. Type of data set: cell-based. The gist of the method:
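Currents are activated by 20 μM 2-APB or by perfusate at 28 °C or warmer, in Ringer's solution, and quantified at ±80 mV.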
A general note: Patch clamp records ionic current or voltage across a cell membrane.

Data set [1] in a line: Aqueous solubility assay in Normal Ringer Solution. Conditions: Normal Ringer Solution; for Solubility Ringer (nM): room temperature; for solubility at 40 min: saline or isotonic, kinetic from dmso stock. As to the method: Following vortex and incubation for a sufficient time (e.g. 40 minutes at room temperature), solutions were filtered, quenched with acetonitrile, and analyzed by Liquid Chromotography. Solubility Limits were determined by comparison to a standard curve.

Setting [2] is: Phase 2 current, read-out: hTRPV3 (nM) (Phase 2).
[3] abbreviates: Phase 1 current, inward, whole-cell patch clamp, read-out: hTRPV3 Patch P1 Inwd.
Where [4] appears, read: Phase 2 current, inward, whole-cell patch clamp, read-out: hTRPV3 Patch P2 Inwd.
Setting [5] is: Phase 1 current, read-out: hTRPV3 (nM) (Phase 1).

These results are taken from patent publication US12435061B2 (priority 2020, dated 2025).

The structures appear in SMILES notation. Values after ≈ are worked out from the molar mass of the structure shown. Structures can show the parent of a compound that is named as a salt. Where two headings read alike, the source gives them in different places.

Chain of hTRPV3 (Q8NET8 whole entry): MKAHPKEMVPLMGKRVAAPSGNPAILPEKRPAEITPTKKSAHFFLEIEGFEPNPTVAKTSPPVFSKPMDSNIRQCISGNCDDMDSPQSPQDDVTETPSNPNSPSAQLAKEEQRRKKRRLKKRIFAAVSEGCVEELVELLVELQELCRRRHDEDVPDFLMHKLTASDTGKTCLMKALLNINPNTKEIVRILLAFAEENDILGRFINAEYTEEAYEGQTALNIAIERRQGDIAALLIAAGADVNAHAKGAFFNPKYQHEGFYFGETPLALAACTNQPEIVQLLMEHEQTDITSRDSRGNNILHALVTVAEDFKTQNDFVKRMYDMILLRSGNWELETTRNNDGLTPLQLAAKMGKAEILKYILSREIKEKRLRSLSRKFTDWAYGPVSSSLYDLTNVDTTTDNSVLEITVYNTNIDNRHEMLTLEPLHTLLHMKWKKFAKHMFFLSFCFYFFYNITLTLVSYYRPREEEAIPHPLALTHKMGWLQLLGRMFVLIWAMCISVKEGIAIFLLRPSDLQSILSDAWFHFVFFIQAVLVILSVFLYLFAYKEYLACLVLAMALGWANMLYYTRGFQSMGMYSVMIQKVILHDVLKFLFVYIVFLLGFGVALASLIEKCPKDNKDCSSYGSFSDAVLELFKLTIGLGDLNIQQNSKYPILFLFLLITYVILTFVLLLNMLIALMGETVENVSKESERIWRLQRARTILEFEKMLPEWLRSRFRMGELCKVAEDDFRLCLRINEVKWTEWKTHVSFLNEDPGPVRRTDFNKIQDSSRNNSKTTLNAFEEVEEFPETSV

With `N#Cc1cc(-c2ccccc2)ncc1N1CC[C@@H](Oc2ccc(C(F)(F)F)cn2)C1` [Compound 1-94], at hTRPV3 (Phase 2 current), the “hTRPV3 (nM) (Phase 2)” value is on record as “Incomplete Block”. The IC50 on hTRPV3 (Phase 2 current, inward, numeric value printed in cell (flagged), read-out: hTRPV3 Patch P2 Inwd) is ~117 nM; at hTRPV3 (setting [2]), ~117 nM. Further, the “Solubility Ringer (nM)” value in data set [1] is recorded as “BLQ”.
In general, solubility refers to the dissolved amount per volume that the medium holds. Read a low solubility as a poorly soluble substance. Regarding `NS(=O)(=O)c1cc(-c2ccccc2)ccc1N1CC[C@@H](Oc2ccc(C(F)(F)F)cn2)C1` [Compound 1-102], the IC50 on hTRPV3 (setting [3]) and on hTRPV3 (setting [4]) was > 1000 nM in each case. Further, in data set [1], the solubility at 40 min was ~0.23 µM (≈ 0.107 µg/mL).
On to `NCc1cc(-c2ccccc2)ccc1N1CC[C@@H](Oc2ccc(C(F)(F)F)cn2)C1` [Compound 1-109, (R)-(4-(3-(5-(trifluoromethyl)pyridin-2-yloxy)pyrrolidin-1-yl)biphenyl-3-yl)methanamine hydrochloride], for which the IC50 at hTRPV3 (hTRPV3 Patch P1 Inwd (nM)) was > 1000 nM; at hTRPV3 (hTRPV3 Patch P2 Inwd (nM)), > 1000 nM; on hTRPV3 (read-out: hTRPV3 (nM) (Phase 1)), 1870 nM; at hTRPV3 (read-out: hTRPV3 (nM) (Phase 2)) it was 1930 nM. Besides, the solubility at 40 min in data set [1] is > 2.95 µM.
For `OCc1cc(-c2ccccc2)ccc1N1CC[C@@H](Oc2ccc(C(F)(F)F)cn2)C1` [Compound 1-110, (R)-(4-(3-(5-(trifluoromethyl)pyridin-2-yloxy)pyrrolidin-1-yl)biphenyl-3-yl)methanol], the IC50 on hTRPV3 (setting [3]) is 100 to 1000 nM; on hTRPV3 (setting [5]) it was 710 nM; on hTRPV3 (setting [4]), 100 to 1000 nM; on hTRPV3 (setting [2]), 685 nM. The “Solubility Ringer (nM)” value in data set [1] was “BLQ”.
As for `N#Cc1ccc(O[C@H]2CCN(c3ccc(-c4ccccc4)cc3CO)C2)nc1` [Compound 1-143, (S)-6-(1-(3-(hydroxymethyl)biphenyl-4-yl)pyrrolidin-3-yloxy)nicotinonitrile], the IC50 on hTRPV3 (setting [3]) is 100 to 1000 nM; at hTRPV3 (setting [5]) it was 337 nM. In data set [1], the concentration in solution (solubility at 40 min) was 1.4 µM (≈ 0.52 µg/mL).
In the case of `N#Cc1ccccc1-c1ccc(N2CC[C@H](Oc3ccc(C(F)(F)F)cn3)C2)c(CO)c1` [Compound 1-155], the IC50 on hTRPV3 (setting [3]) is 100 to 1000 nM. In data set [1], the “Solubility Ringer (nM)” value is “BLQ”.
In the case of `OCc1cc(-c2ccccc2)ncc1N1CC[C@H](Oc2ccc(C(F)(F)F)cn2)C1` [Compound 1-158], the IC50 is 100 to 1000 nM on hTRPV3 (setting [3]), 773 nM on hTRPV3 (setting [5]), 100 to 1000 nM at hTRPV3 (setting [4]) and 747 nM at hTRPV3 (setting [2]). Also, the solubility at 40 min in data set [1] is ~2 µM (≈ 0.831 µg/mL).
Consider `NC(=O)c1ccccc1-c1ccc(N2CC[C@H](Oc3ccc(C(F)(F)F)cn3)C2)c(CO)c1` [Compound 1-159, (S)-3′-(hydroxymethyl)-4′-(3-(5-(trifluoromethyl)pyridin-2-yloxy)pyrrolidin-1-yl)biphenyl-2-carboxamide], for which the IC50 on hTRPV3 (setting [3]) is > 1000 nM; at hTRPV3 (setting [5]), > 3200 nM; at hTRPV3 (setting [4]) it was > 1000 nM; on hTRPV3 (setting [2]), > 3200 nM. For the same molecule, in data set [1], the solubility at 40 min was > 16.6 µM.
Turning to `CN(C)C(=O)c1ccccc1-c1ccc(N2CC[C@H](Oc3ccc(C(F)(F)F)cn3)C2)c(CO)c1` [Compound 1-167, (S)-3′-(hydroxymethyl)-N,N-dimethyl-4′-(3-(5-(trifluoromethyl)pyridin-2-yloxy)pyrrolidin-1-yl)biphenyl-2-carboxamide], the IC50 was > 1000 nM on hTRPV3 (setting [3]), ~1290 nM at hTRPV3 (setting [5]), > 1000 nM at hTRPV3 (setting [4]) and > 3200 nM on hTRPV3 (setting [2]). Besides, the solubility at 40 min in data set [1] is > 12.6 µM.
Turning to `CC(O)c1ccccc1-c1ccc(N2CC[C@H](Oc3ccc(C(F)(F)F)cn3)C2)c(CO)c1` (stereo partly drawn) [Compound 1-171, 1-(3′-(hydroxymethyl)-4′-((S)-3-(5-(trifluoromethyl)pyridin-2-yloxy)pyrrolidin-1-yl)biphenyl-2-yl)ethanol], the IC50 at hTRPV3 (setting [3]) is 100 to 1000 nM; on hTRPV3 (setting [5]), 740 nM; on hTRPV3 (setting [4]), 100 to 1000 nM; on hTRPV3 (setting [2]) it was 636 nM. The solubility at 40 min in data set [1] is > 5.35 µM.
On to `OCc1ccccc1-c1ccc(N2CC[C@H](Oc3ccc(C(F)(F)F)cn3)C2)c(CO)c1` [Compound 1-174, (S)-(4′-(3-(5-(trifluoromethyl)pyridin-2-yloxy)pyrrolidin-1-yl)biphenyl-2,3′-diyl)dimethanol], for which the IC50 is 100 to 1000 nM on hTRPV3 (setting [3]), > 320 nM on hTRPV3 (setting [5]), > 1000 nM on hTRPV3 (setting [4]) and > 3200 nM on hTRPV3 (setting [2]). The solubility at 40 min in data set [1] is > 0.67 µM.
In the same order, the values of `OC[C@@H]1C[C@@H](Oc2ccc(C(F)(F)F)cn2)CN1c1ccc(-c2ccccc2)cc1` [Compound 1-175] are > 1000 nM, > 3200 nM, > 1000 nM, > 3200 nM and ~0.68 µM (≈ 0.282 µg/mL).
Regarding `N#Cc1ccccc1-c1ccc(N2CC[C@H](Oc3ccc(C(F)(F)F)cn3)C2)c(CO)n1` [Compound 1-197, (S)-2-(6-(hydroxymethyl)-5-(3-(5-(trifluoromethyl)pyridin-2-yloxy)pyrrolidin-1-yl)pyridin-2-yl)benzonitrile], the IC50 at hTRPV3 (setting [3]) is 10 to 100 nM; at hTRPV3 (setting [5]), ~38.5 nM. Moreover, the solubility at 40 min in data set [1] is ~0.4 µM (≈ 0.176 µg/mL).
For the molecule `Cc1ccc(O[C@H]2CCN(c3ccc(Oc4ccccc4C)nc3CO)C2)nc1` [Compound 1-203, (S)-(3-(3-(5-methylpyridin-2-yloxy)pyrrolidin-1-yl)-6-(o-tolyloxy)pyridin-2-yl)methanol], the IC50 is > 1000 nM at hTRPV3 (setting [3]), ~5050 nM on hTRPV3 (setting [5]), > 1000 nM at hTRPV3 (setting [4]) and 3270 nM at hTRPV3 (setting [2]). Moreover, the solubility at 40 min in data set [1] was ~1.4 µM (≈ 0.548 µg/mL).
Consider `CCc1ccccc1-c1ccc(N2CC[C@H](Oc3ncccc3F)C2)c(CO)n1` [Compound 1-204, (S)-(6-(2-ethylphenyl)-3-(3-(3-fluoropyridin-2-yloxy)pyrrolidin-1-yl)pyridin-2-yl)methanol], for which the figures for the IC50 at hTRPV3 (setting [3]) and at hTRPV3 (setting [5]) were > 1000 nM and 2670 nM, respectively. The solubility at 40 min in data set [1] is > 1.8 µM.
Turning to `COc1ccccc1-c1ccc(N2CC[C@H](Oc3ccc(F)cn3)C2)c(CO)n1` [Compound 1-209, (S)-(3-(3-(5-fluoropyridin-2-yloxy)pyrrolidin-1-yl)-6-(2-methoxyphenyl)pyridin-2-yl)methanol], the IC50 was > 1000 nM at hTRPV3 (setting [3]) and 3470 nM on hTRPV3 (setting [5]). The solubility at 40 min in data set [1] is ~2.3 µM (≈ 0.909 µg/mL).
As for `OCc1cc(Oc2cccc(Cl)c2)ccc1N1CC[C@H](Oc2ncccc2Cl)C1` [Compound 1-248, (S)-(5-(3-chlorophenoxy)-2-(3-(3-chloropyridin-2-yloxy)pyrrolidin-1-yl)phenyl)methanol], the results for the IC50 on hTRPV3 (setting [3]) and at hTRPV3 (setting [5]) were 10 to 100 nM and 12.3 nM, respectively. In data set [1], the “Solubility Ringer (nM)” value is on record as “BLQ”.
Consider `OCc1cc(Oc2ccc(Cl)cc2)ccc1N1CC[C@H](Oc2ncccc2Cl)C1` [Compound 1-249, (S)-(5-(4-chlorophenoxy)-2-(3-(3-chloropyridin-2-yloxy)pyrrolidin-1-yl)phenyl)methanol], for which the values for the IC50 on hTRPV3 (setting [3]) and on hTRPV3 (setting [5]) were 10 to 100 nM and 22.1 nM, respectively. Besides, in data set [1], the “Solubility Ringer (nM)” value is “BLQ”.
With `Cc1ccc(Oc2ccc(N3CC[C@H](Oc4ncccc4Cl)C3)c(CO)c2)cc1` [Compound 1-250, (S)-(2-(3-(3-chloropyridin-2-yloxy)pyrrolidin-1-yl)-5-(p-tolyloxy)phenyl)methanol], the IC50 on hTRPV3 (setting [3]) is < 10 nM; on hTRPV3 (setting [5]), 8.42 nM. In addition, the solubility at 40 min in data set [1] is ~0.1 µM (≈ 0.0411 µg/mL).
With `CCc1ccccc1C(O)c1ccc(N2CC[C@H](Oc3ncccc3Cl)C2)c(CO)c1` (stereo partly drawn) [Compound 1-257, (4-((S)-3-(3-chloropyridin-2-yloxy)pyrrolidin-1-yl)-3-(hydroxymethyl)phenyl)(2-ethylphenyl)methanol], the IC50 at hTRPV3 (setting [3]) was 100 to 1000 nM; on hTRPV3 (setting [5]) it was 1060 nM; on hTRPV3 (setting [4]), > 1000 nM; on hTRPV3 (setting [2]), 1110 nM. The solubility at 40 min in data set [1] is > 6.6 µM.
Turning to `CC(C)(C)OC(=O)N1CC=C(c2ccc(N3CC[C@H](Oc4ccc(C(F)(F)F)cn4)C3)c(CO)c2)CC1` [Compound 1-272, (S)-tert-butyl 4-(3-(hydroxymethyl)-4-(3-(5-(trifluoromethyl)pyridin-2-yloxy)pyrrolidin-1-yl)phenyl)-5,6-dihydropyridine-1 (2H)-carboxylate], the IC50 on hTRPV3 (setting [3]) was > 1000 nM; at hTRPV3 (setting [5]), > 3200 nM. Further, the “Solubility Ringer (nM)” value in data set [1] is given as “BLQ”.
On to `CC(C)(C)OC(=O)N1CCC(c2ccc(N3CC[C@H](Oc4ccc(C(F)(F)F)cn4)C3)c(CO)c2)CC1` [Compound 1-273, (S)-tert-butyl 4-(3-(hydroxymethyl)-4-(3-(5-(trifluoromethyl)pyridin-2-yloxy)pyrrolidin-1-yl)phenyl)piperidine-1-carboxylate], for which the IC50 at hTRPV3 (setting [3]) is > 1000 nM; at hTRPV3 (setting [5]), > 3200 nM. In addition, the “Solubility Ringer (nM)” value in data set [1] is on record as “BLQ”.
`OCc1cc(-c2ccccc2)ccc1N1CC[C@H](Oc2ccccn2)C1` [Compound 1-274]: the results for the IC50 on hTRPV3 (setting [3]) and on hTRPV3 (setting [5]) were 100 to 1000 nM and 241 nM, respectively. In data set [1], the solubility at 40 min is ~5.5 µM (≈ 1.91 µg/mL).
As for `OCc1cc([C@H](O)c2ccccc2Cl)ccc1N1CC[C@H](Oc2ncccc2F)C1` [Compound 1-322, (2-chlorophenyl)(4-((S)-3-(3-fluoropyridin-2-yloxy)pyrrolidin-1-yl)-3-(hydroxymethyl)phenyl)methanol], the IC50 at hTRPV3 (setting [3]) is 100 to 1000 nM; at hTRPV3 (setting [5]), 794 nM. Besides, the solubility at 40 min in data set [1] was > 9.3 µM.
For the molecule `COc1ccccc1Oc1ccc(N2CC[C@H](Oc3ncccc3C)C2)c(CO)c1` [Compound 1-340, (S)-(5-(2-methoxyphenoxy)-2-(3-(3-methylpyridin-2-yloxy)pyrrolidin-1-yl)phenyl)methanol], the IC50 at hTRPV3 (setting [3]) was 10 to 100 nM; on hTRPV3 (setting [5]), 70.1 nM; at hTRPV3 (setting [4]), 10 to 100 nM; at hTRPV3 (setting [2]), 74.4 nM. Moreover, in data set [1], the solubility at 40 min is ~2.4 µM (≈ 0.976 µg/mL).
